Experimental data reported in patent US7674594B2, “Screening assay for inhibitors of TRPA1 activation by a lower alkyl phenol” (Redpoint Bio Corporation, priority 2006, dated 2010).
“Also recorded” adds a separate entry of the source. Like-named read-outs stand apart in the source and are kept apart here.

Legend:
[1] = molecular target: T1, hTRPA1 (Homo sapiens, UniProt O75762); test: Membrane potential dye fluorescence assay (FLIPR/FLEXstation), activation of hTRPA1 in transfected HEK293 cells; format: cell-based
T1 construct: The full length hTRPA1 was amplified by PCR with Kpn1 and Xho1 restriction enzyme sites; expressed in transfected cells; also transient transfection
T1 sequence (O75762 whole entry): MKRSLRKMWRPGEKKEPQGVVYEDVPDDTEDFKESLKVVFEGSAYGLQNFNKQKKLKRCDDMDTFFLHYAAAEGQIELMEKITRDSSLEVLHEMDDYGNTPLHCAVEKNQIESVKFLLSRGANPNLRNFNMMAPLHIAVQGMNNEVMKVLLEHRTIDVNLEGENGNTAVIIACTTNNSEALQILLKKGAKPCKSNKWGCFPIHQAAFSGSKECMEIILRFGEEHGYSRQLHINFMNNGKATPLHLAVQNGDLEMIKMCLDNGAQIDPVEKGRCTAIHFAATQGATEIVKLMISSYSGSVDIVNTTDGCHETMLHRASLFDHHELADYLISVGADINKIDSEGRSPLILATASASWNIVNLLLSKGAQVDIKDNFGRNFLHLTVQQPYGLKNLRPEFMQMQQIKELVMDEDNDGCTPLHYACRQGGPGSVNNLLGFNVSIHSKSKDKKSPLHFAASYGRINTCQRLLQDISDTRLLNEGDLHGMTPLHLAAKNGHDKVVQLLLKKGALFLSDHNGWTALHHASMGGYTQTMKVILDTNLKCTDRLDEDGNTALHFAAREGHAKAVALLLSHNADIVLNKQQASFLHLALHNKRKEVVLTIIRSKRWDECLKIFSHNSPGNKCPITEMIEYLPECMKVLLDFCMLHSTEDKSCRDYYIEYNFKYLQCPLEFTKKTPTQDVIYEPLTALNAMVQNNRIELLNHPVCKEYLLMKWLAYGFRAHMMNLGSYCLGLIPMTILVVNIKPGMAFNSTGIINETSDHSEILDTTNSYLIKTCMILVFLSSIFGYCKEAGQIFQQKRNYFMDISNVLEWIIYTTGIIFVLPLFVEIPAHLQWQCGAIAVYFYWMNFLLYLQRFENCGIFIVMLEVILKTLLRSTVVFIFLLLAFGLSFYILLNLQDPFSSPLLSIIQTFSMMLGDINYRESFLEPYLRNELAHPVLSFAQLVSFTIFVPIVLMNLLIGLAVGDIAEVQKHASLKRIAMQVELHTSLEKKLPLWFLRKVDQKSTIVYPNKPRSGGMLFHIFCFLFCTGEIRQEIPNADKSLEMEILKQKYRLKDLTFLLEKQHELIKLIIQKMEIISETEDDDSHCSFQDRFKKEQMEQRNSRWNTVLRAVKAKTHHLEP
Experimental: Once expression of TRPA1 was confirmed, 100 μl of the Blue or Red FMP dye (Molecular Devices) was added to each well of plates seeded with the transiently transfected cells. The plate was then incubated in a 37° C./5% CO2 incubator for 1 hour. The plate was read in a FLEXStation microplate reader (Molecular Devices) with an excitation of 530 nm and an emission of 565 nm. The fluorescence was monitored for 3 minutes upon exposure of the cells to a TRPA1 activating agent (e.g., cinnamaldehyde).
(§1) Samples in a 384-well plate were evaluated in a 5 minute assay on the FLIPR-Tetra™ (Molecular Devices). The assay was performed on a FLIPR™ using the excitation 510-545 nm and emission 565-625 nm filter sets. TRPA1-Transfected HEK cells, 15,000/well, were seeded overnight on poly-D-lysine coated 384 well plates in 20 μl media. Membrane Potential Assay Dye Red (Molecular Devices), 20 μl/well, was added and the plates incubated for 1 hour in a 37° C. and 5% CO2 incubator. The plates were then removed from the incubator and equilibrated to room temperature for 15 minutes before reading on the FLIPR®. The plates were read on the FLIPR® for a total of 3 minutes. Baseline fluorescence was obtained on the FLIPR® for 10 seconds followed by addition (typically 10 μl) of each agonist by the FLIPR® and read for an additional 2 minutes and 50 seconds.

[2] = molecular target: T2, hTRPM5 (Homo sapiens, UniProt Q9NZQ8); test: Membrane potential dye fluorescence assay, HEK293 or CHO cells expressing hTRPM5; format: cell-based
T2 construct: expressed in transfected cells
T2 sequence (Q9NZQ8 1-1165): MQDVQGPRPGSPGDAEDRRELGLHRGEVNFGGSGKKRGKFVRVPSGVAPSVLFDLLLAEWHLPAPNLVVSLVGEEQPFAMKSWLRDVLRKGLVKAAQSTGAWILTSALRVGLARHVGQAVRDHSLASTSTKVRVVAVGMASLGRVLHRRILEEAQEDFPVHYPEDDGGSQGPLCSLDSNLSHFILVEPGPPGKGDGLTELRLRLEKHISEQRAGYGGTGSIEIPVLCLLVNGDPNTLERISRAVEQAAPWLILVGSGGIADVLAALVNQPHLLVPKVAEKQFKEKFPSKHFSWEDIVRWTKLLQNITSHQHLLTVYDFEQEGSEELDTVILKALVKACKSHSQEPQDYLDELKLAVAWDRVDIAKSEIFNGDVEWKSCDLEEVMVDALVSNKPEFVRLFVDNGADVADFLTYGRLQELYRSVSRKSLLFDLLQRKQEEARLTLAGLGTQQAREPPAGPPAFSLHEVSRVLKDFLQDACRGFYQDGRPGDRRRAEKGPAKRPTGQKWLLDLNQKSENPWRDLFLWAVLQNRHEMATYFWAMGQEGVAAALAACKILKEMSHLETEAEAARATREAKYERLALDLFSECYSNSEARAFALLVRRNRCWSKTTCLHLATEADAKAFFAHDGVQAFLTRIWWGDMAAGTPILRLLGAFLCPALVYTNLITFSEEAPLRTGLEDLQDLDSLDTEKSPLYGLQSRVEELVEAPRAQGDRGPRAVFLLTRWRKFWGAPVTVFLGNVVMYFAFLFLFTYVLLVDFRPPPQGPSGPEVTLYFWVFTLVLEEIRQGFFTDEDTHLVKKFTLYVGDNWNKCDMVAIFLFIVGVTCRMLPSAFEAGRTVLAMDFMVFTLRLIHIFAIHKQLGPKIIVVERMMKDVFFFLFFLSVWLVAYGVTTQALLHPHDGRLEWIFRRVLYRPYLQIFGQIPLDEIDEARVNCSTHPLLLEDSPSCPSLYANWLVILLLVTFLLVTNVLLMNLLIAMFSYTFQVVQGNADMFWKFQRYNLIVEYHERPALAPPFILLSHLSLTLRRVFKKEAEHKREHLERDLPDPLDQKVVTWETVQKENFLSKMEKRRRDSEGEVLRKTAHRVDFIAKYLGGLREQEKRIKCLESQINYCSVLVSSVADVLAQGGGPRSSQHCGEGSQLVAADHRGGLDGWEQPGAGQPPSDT
Experimental: as §1
(§2) HEK293 cells were stably transfected with one of hTRPA1, hTRPV1 or hTRPM5. CHO cells were stably transfected with one of hTRPM4B or TRPM5. Parental HEK293 and CHO cells were also used as a negative control.

[3] = molecular target: T3, hTRPV1 (Homo sapiens, UniProt Q8NER1); test: Membrane potential dye fluorescence assay, HEK293 cells expressing hTRPV1; format: cell-based
T3 construct: expressed in transfected cells
T3 sequence (Q8NER1 whole entry): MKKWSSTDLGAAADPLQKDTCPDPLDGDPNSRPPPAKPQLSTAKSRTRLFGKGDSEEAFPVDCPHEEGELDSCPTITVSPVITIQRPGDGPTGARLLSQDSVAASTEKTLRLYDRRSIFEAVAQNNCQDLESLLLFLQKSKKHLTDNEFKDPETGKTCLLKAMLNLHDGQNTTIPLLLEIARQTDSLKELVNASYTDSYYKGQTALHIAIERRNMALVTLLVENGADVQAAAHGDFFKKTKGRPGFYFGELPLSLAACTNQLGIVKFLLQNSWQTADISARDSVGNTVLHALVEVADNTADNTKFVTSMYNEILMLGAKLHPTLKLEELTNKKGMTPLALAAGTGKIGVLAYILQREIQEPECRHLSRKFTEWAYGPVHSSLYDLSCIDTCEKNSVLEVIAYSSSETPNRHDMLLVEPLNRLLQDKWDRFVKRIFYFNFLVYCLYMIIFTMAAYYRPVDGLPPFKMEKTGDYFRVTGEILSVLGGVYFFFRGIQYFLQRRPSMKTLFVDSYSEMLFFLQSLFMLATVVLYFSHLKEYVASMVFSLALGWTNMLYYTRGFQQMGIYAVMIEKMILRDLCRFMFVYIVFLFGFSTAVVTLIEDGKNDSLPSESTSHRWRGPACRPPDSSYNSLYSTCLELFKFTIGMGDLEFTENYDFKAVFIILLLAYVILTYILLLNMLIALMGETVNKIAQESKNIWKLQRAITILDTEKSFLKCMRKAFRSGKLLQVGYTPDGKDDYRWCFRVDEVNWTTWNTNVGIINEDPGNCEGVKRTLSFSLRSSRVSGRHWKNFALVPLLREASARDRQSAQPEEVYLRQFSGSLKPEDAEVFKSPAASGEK
Experimental: as §1, §2

[4] = molecular target: T4, hTRPM4B (Homo sapiens, UniProt Q8TD43); test: Membrane potential dye fluorescence assay, CHO cells expressing hTRPM4B; format: cell-based
T4 construct: expressed in transfected cells
T4 sequence (Q8TD43 whole entry): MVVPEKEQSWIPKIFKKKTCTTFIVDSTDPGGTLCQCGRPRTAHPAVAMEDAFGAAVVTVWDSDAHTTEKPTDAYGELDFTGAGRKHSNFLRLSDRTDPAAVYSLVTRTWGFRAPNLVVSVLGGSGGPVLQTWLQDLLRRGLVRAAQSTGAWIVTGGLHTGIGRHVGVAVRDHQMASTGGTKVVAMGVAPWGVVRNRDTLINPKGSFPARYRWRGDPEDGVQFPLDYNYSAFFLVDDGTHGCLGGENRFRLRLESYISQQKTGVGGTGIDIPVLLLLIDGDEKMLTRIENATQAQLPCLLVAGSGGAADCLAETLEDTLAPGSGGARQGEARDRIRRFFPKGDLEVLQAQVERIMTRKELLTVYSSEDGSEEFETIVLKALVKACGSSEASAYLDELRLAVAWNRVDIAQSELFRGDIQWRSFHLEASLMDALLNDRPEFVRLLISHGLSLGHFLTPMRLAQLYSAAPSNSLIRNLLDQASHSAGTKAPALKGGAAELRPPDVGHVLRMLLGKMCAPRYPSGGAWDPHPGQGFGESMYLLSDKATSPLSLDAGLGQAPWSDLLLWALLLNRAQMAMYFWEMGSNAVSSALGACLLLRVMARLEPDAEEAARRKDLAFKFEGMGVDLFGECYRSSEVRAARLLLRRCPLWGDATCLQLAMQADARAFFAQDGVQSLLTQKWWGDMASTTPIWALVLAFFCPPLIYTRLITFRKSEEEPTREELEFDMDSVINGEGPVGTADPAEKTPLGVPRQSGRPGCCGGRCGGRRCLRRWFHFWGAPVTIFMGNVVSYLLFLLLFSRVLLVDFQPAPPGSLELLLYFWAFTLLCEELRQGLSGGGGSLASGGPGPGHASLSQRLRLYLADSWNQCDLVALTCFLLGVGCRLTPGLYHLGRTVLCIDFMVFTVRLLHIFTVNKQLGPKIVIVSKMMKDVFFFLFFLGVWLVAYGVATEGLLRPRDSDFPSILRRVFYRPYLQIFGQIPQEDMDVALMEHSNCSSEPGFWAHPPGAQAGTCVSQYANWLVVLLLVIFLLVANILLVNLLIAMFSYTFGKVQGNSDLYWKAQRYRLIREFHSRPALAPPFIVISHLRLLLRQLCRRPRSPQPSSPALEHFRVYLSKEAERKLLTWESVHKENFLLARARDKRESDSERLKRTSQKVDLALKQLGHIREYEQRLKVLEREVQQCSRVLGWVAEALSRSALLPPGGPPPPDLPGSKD
Experimental: as §1, §2

[5] = system: mice; test: Taste aversion (lick) assay in mice; format: in vivo, mouse
Experimental: In this assay, the ability of identified lower alkyl phenols to evoke taste aversion in mice was measured. Mice were exposed to increasing concentrations of lower alkyl phenols.

[6] = system: parental HEK293 cells; test: Membrane potential dye fluorescence assay in parental (non-transfected) HEK293 cells; format: cell-based, human
[7] = molecular target: T1, hTRPA1; test: Modulation of agonist-activated TRPA1 in HEK293 cells expressing hTRPA1 (membrane potential dye); format: cell-based; conditions: HEK293 cells
Experimental: as §1
(§3) Appropriate control experiments are performed and can easily be determined by the skilled artisan.
(§4) HEK293 cells and CHO cells expressing TRPA1 were subjected to the assay described in Example 2.

[8] = molecular target: T1, hTRPA1; test: Modulation of agonist-activated TRPA1 in CHO cells expressing hTRPA1 (membrane potential dye); format: cell-based
Experimental: as §1, §3, §4

[9] = Human sensory panel, detection threshold in water; format: in vivo; conditions: FIG. 2B
[10] = molecular target: T1, hTRPA1; test: siRNA knockdown of hTRPA1 in hTRPA1 HEK293 cells, membrane potential dye response; format: cell-based; conditions: increasing concentrations
Experimental: HEK293 cells were transiently transfected with one of siRNA for hTRPA1, and one of Silencer pre-designed and validated siRNA (Ambion), GAPDH or negative siRNA control. 1×10^6 hTRPA1 stably transfected HEK 293 cells were plated in 35 mm dishes overnight. The next day 10 μM of each siRNA was transfected into these cells using siPORT Amine (Ambion) and incubated overnight. The following day, transfected cells were trypsinized and seeded into 384-well black, clear bottom, poly-D-lysine plates (Corning) at a density of 15,000 cells/well in a 20 μl volume and incubated in a 37° C./5% CO2 incubator overnight.
The cells were then loaded with membrane potential sensitive dye and subjected to the fluorescence assay described in Example 2.

[11] = HEK293 cells stably transfected with hTRPA1, FMP dye, FLIPR
[12] = hTRPA1 HEK293 cells, increase in fluorescence of membrane potential dye
[13] = increasing concentrations, FIG. 6
[14] = HEK293, increasing concentrations, FIG. 6
[15] = CHO, increasing concentrations, FIG. 6
[16] = mice, increasing concentrations

Row | Structure (SMILES) | EC50 [1, 11] | TRPA1 activation / agonist activity (in words) [1, 12] | response of cells expressing hTRPM5 (in words) [2, 13] | response of cells expressing hTRPV1 (in words) [3, 14] | response of cells expressing hTRPM4B (in words) [4, 15] | taste aversion, licks/trial (in words) [5, 16] | response of parental HEK293 cells (in words) ([6]; cells not expressing TRPA1) | other results
1 | Cc1ccc(C)c(O)c1 [2,5-dimethylphenol] | 52 ± 29 µM | generated an increase in relative fluorescence | did not generate the same increase in relative fluorescence | did not generate the same increase in relative fluorescence | did not generate the same increase in relative fluorescence | a decrease in licks/trial | no response | –
2 | Cc1cccc(C)c1O [2,6-dimethylphenol] | 66 ± 22 µM | generated an increase in relative fluorescence | did not generate the same increase in relative fluorescence | did not generate the same increase in relative fluorescence | did not generate the same increase in relative fluorescence | – | no response | –
3 | Cc1ccc(C(C)(C)C)c(O)c1 [2-tert-butyl-5-methylphenol] | 4 ± 2 µM | generated an increase in relative fluorescence | did not generate the same increase in relative fluorescence | did not generate the same increase in relative fluorescence | did not generate the same increase in relative fluorescence | – | background fluorescence | –
4 | CC12CCC(CC1=O)C2(C)C (centres unmarked) [Camphor] | – | has no agonist activity | – | – | – | – | – | TRPA1 activation / agonist activity (in words) ([1]; hTRPA1 HEK293 cells, increase in fluorescence of membrane potential dye, listed as camphor): are TRPA1 agonists; inhibition of allyl isothiocyanate activated TRPA1 (in words) [7]: fully inhibited; inhibition of cinnamaldehyde activated TRPA1 (in words) [7]: fully inhibited; inhibition of thymol activated TRPA1 (in words) [7]: fully inhibited; inhibition of thymol activated TRPA1 (in words) ([7]; listed as camphor): agonists of thymol activation of TRPA1; inhibition of allyl isothiocyanate activated TRPA1 (in words) [8]: potentially inhibits; inhibition of cinnamaldehyde activated TRPA1 (in words) [8]: potentially inhibits; inhibition of thymol activated TRPA1 (in words) [8]: fully inhibits
5 | CC(C)c1cccc(C(C)C)c1O [Propofol] | – | – | – | – | – | – | – | EC50 [1]: 13 ± 6 µM; TRPA1 activation / agonist activity (in words) [1]: generated an increase in relative fluorescence; response of cells expressing hTRPM5 (in words) [2]: did not generate the same increase in relative fluorescence; response of cells expressing hTRPV1 (in words) [3]: did not generate the same increase in relative fluorescence; response of cells expressing hTRPM4B (in words) [4]: did not generate the same increase in relative fluorescence; taste aversion, licks/trial (in words) ([5]; mouse, in vivo): a decrease in licks/trial; response of parental HEK293 cells (in words) [6]: background fluorescence
6 | Cc1ccc(C(C)C)c(O)c1 [Thymol] | – | at a level similar to that of cinnamaldehyde; also recorded: generated an increase in relative fluorescence | did not generate the same increase in relative fluorescence | did not generate the same increase in relative fluorescence | did not generate the same increase in relative fluorescence | a decrease in licks/trial | no change in activation | activation of TRPA1 over standard value from cells not expressing TRPA1 ([1]; at 10 μM, FIG. 3B): about 7 fold; average detection threshold in water [9]: approximately 5 μM; fluorescence response of cells transfected with hTRPA1 siRNA versus GAPDH or negative siRNA control (in words) [10]: did not increase as much as
7 | O=CC=Cc1ccccc1 [cinnamaldehyde] | 7 µM | – | – | – | – | – | no change in activation | fluorescence response of cells transfected with hTRPA1 siRNA versus GAPDH or negative siRNA control (in words) [10]: did not increase as much as
8 | Cc1ccccc1O [o-Cresol] | 327 ± 132 µM | generated an increase in relative fluorescence | did not generate the same increase in relative fluorescence | did not generate the same increase in relative fluorescence | did not generate the same increase in relative fluorescence | a decrease in licks/trial | no response | –
9 | Oc1ccccc1 [phenol] | – | – | – | – | – | – | – | TRPA1 activation / agonist activity (in words) [1]: did not generate the same increase in relative fluorescence; response of cells expressing hTRPM5 (in words) [2]: did not generate the same increase in relative fluorescence; response of cells expressing hTRPV1 (in words) [3]: generated an increase in relative fluorescence; response of cells expressing hTRPM4B (in words) [4]: did not generate the same increase in relative fluorescence; taste aversion, licks/trial (in words) ([5]; mouse, in vivo): a decrease in licks/trial
